Reference: paper PMC11246995 (Frontiers in Molecular Biosciences, 2024)
Like-named read-outs stand apart in the source and are kept apart here.

Assay: MALDI quantitative MSI (on-tissue qMSI) of rotenone in kidney tissue sections after a single oral dose
Format: in vivo
Conditions: rat, single oral 2 mg/kg; for concentration at 24 h: kidney, po, 2 mg/kg
Procedure: Rats were sacrificed 24 h after drug administration, and the kidney and liver organs were immediately removed, flash-frozen with liquid nitrogen, and stored at −80°C in a freezer for long-term storage. The administration and harvesting of organs were conducted by the Pharmalytics Corporation, accredited by the Food and Drug Administration (FDA, Philippines) for bioavailability and bioequivalence research. The animal study was reviewed and approved by the Institutional Animal Care and Use Committee (IACUC) Esteleydes Animal Laboratory and Research Facility and by the Bureau of Animal Industry—Animal Health and Welfare Division in the Philippines.
Agarose-embedded kidney and liver organs were cut longitudinally at 5 µm thickness at −20°C using a cryostat (Leica CM 1950; Leica Biosystems, Germany), and thaw-mounted onto clean glass slides. The agarose-embedded kidney or liver was trimmed up to 500 µm to remove the agarose covering a portion of the organ. Subsequently, seven layers from the outer portion towards the middle were identified with a 100 µm distance between each layer. Representative cryosections were obtained from each identified layer of the untreated and drug-treated rat kidney. The agarose surrounding the kidney or liver cryosectioned tissue was manually removed before mounting onto a glass slide. Prior to matrix coating, the glass slides mounted with thin kidney cryosections were placed in a box and kept in a vacuum desiccator cabinet overnight ([Costa et al., 2013]; [Marques et al., 2014]; [Dalisay et al., 2015]; [Suarez et al., 2023]).
Matrix solution was applied to evenly coat the entire tissue surface using a HTX M5 Sprayer (HTX Technologies, LLC, Carrboro, NC, United States). The parameter settings were optimized to avoid metabolite delocalization and compromised spatial integrity. The kidney sections were sprayed with a matrix solution of 2,5-dihydroxybenzoic acid (DHB) (Acros Organics, New Jersey, United States) at a concentration of 40 mg/mL in MeOH/H2O (1:1 v/v). Matrix solution was homogeneously applied for 6 passes in a criss-cross (CC) pattern with a nozzle temperature of 80°C, 1 mm track spacing, 1,250 mm/min nozzle speed, and 10 psi nitrogen pressure.
This method utilized an untreated kidney tissue sample which was sectioned and mounted on a clean glass slide. An on-tissue calibration curve method for qMSI was followed ([Kibbe and Muddiman, 2024]). […] Linear regression analysis was applied and inspected to confirm linearity. The untreated tissue was spotted with calibrants, allowed to dry, and coated with matrix (DHB 40 mg/mL in MeOH:H2O, 1:1 v/v). MALDI MSI data were acquired in 100 μm pixel resolution using MALDI SYNAPT XS (Waters Corporation, Manchester, United Kingdom) in positive mode. The experiment was performed with three replicates per calibrant in three independent trials. In order to address variations that may occur during data acquisition for qMSI, the ion signals were normalized to the total ion current (TIC). The intensities obtained for each concentration were plotted and approximated using the least-squares method. The limits of detection (LOD) and quantification (LOQ) were calculated by averaging the calibration curves, using signal-to-noise ratios (S/N) of 3:1 for LOD and 10:1 for LOQ. The validity of these limits was confirmed by applying serially diluted rotenone onto the tissue. In cases where the blank response has a standard deviation (SD) of zero, the SD of the lowest non-zero concentration was utilized. The SD value was divided by the slope of the calibration curve and multiplied by 3.3. The LOD was calculated using the formula LOD=3.3 x SDlowest non−zero concentration/slope of the calibration curve
To calculate the LOD and LOQ values in kidney tissue (pg/ng), the values were divided by the renal tissue density (ng/µL). […]

SMILES: C=C(C)[C@H]1Cc2c(ccc3c2O[C@@H]2COc4cc(OC)c(OC)cc4[C@@H]2C3=O)O1 [rotenone, Rotenone]
- concentration at 24 h (AVERAGE ± SD of 7 kidney tissue sections, read-out: Concentration): 6200 ± 3800 ng/mL
- concentration at 24 h (AVERAGE ± SD of 7 kidney tissue sections, read-out: Relative concentration per tissue section): 5860 ng/g
- concentration at 24 h (Kidney Tissue 1 (layer 1), read-out: Concentration): 3600 ng/mL
- concentration at 24 h (Kidney Tissue 1 (layer 1), read-out: Relative concentration per tissue section): 1650 ng/g
- concentration at 24 h (Kidney Tissue 2 (layer 2), read-out: Concentration): 2000 ng/mL
- concentration at 24 h (Kidney Tissue 2 (layer 2), read-out: Relative concentration per tissue section): 1100 ng/g
- concentration at 24 h (Kidney Tissue 3 (layer 3), read-out: Concentration): 2600 ng/mL
- concentration at 24 h (Kidney Tissue 3 (layer 3), read-out: Relative concentration per tissue section): 1910 ng/g
- concentration at 24 h (Kidney Tissue 4 (layer 4), read-out: Concentration): 7200 ng/mL
- concentration at 24 h (Kidney Tissue 4 (layer 4), read-out: Relative concentration per tissue section): 5950 ng/g
- concentration at 24 h (Kidney Tissue 5 (layer 5), read-out: Concentration): 7000 ng/mL
- concentration at 24 h (Kidney Tissue 5 (layer 5), read-out: Relative concentration per tissue section): 6420 ng/g
- concentration at 24 h (Kidney Tissue 6 (layer 6), read-out: Concentration): 8000 ng/mL
- concentration at 24 h (Kidney Tissue 6 (layer 6), read-out: Relative concentration per tissue section): 9210 ng/g
- concentration at 24 h (Kidney Tissue 7 (layer 7), read-out: Concentration): 12800 ng/mL
- concentration at 24 h (Kidney Tissue 7 (layer 7), read-out: Relative concentration per tissue section): 14700 ng/g
- Normalized Mass intensity by TIC (24 h, AVERAGE ± SD of 7 kidney tissue sections): 0.0042 ± 0.0019
- Normalized Mass intensity by TIC (24 h, Kidney Tissue 1 (layer 1)): 0.0030
- Normalized Mass intensity by TIC (24 h, Kidney Tissue 2 (layer 2)): 0.0022
- Normalized Mass intensity by TIC (24 h, Kidney Tissue 3 (layer 3)): 0.0025
- Normalized Mass intensity by TIC (24 h, Kidney Tissue 4 (layer 4)): 0.0048
- Normalized Mass intensity by TIC (24 h, Kidney Tissue 5 (layer 5)): 0.0047
- Normalized Mass intensity by TIC (24 h, Kidney Tissue 6 (layer 6)): 0.0052
- Normalized Mass intensity by TIC (24 h, Kidney Tissue 7 (layer 7)): 0.0076
- Detected amount of rotenone drug in picograms per nanogram of tissue mass (24 h, range over seven kidney layers): 0.0011 to 0.0147 pg/ng
